According to paper PMC6831561, “Pharmacological and Behavioral Effects of the Synthetic Cannabinoid AKB48 in Rats” (Frontiers in Neuroscience, 2019):

Legend:
Type in all cases: in vivo
rats [1] = assay: Tail pinch test (acute mechanical nociception)
Protocol: Acute mechanical nociception was evaluated using the tail pinch tests (modified by [Vigolo et al., 2015]). A special rigid probe connected to a digital dynamometer (ZP-50N, IMADA, Japan) was gently placed on the tail (in the distal portion), and progressive pressure was applied. When the rat flicked its tail, the pressure was stopped, and the digital instrument saved the maximum peak of weight supported (g/force). A cut-off (500 g/force) was set to avoid tissue damage. The test was repeated three times, and the final value was calculated with the average of three obtained scores. Acute mechanical nociception was measured at 0, 20, 40, 70, 140, and 195 min post-injection.

rats [2] = assay: Bar test (catalepsy)
Protocol: In the bar test, the rat’s forelimbs were placed on a bar made of plastic (height 6 cm). The time spent on the bar was measured (immobility cut-off: 20 sec), and akinesia was calculated as the total time spent on the bar after three consecutive trials (total maximal time of catalepsy: 60 s; [De Luca et al., 2015]; [Canazza et al., 2016]). The bar test was performed at 0, 20, 40, 70, 140, and 195 min post-injection.

rats [3] = assay: Visual object response test
From the text: Visual response was verified by two behavioral tests that evaluated the ability of the rat to capture visual information even when stationary (the visual object response) or when moving (the visual placing response). The visual object response test was used to evaluate the ability of the rat to see an object approaching from the front or the side, inducing the animal to shift or turn its head or to retreat (modified from [Ossato et al., 2015]; [Marti et al., 2019]). For the frontal visual response, a white horizontal bar was moved frontally to the rat’s head; the maneuver was repeated three times. For the lateral visual response, a small dentist’s mirror was moved into the rat’s field of view in a horizontal arc until the stimulus was between the rat’s eyes. The procedure was conducted bilaterally and was repeated three times. The score assigned was a value of 1 if there was a reflection in the rat movement or 0 if not. The total value was calculated by adding the scores obtained in the frontal with that obtained in the lateral visual object response (overall score 9). Evaluation of the visual object response was measured at 0, 10, 30, 60, 120, and 180 min post-injection. The visual placing response test was performed using a tail suspension-modified apparatus able to bring the rat toward the floor at a constant speed of 10 cm/sec (modified from [Ossato et al., 2015]; [Marti et al., 2019]). The downward movement of the rat was videotaped. Frame-by-frame analysis allowed us to evaluate the beginning of the reaction of the rat while it was close to the floor. When the rat started the reaction, an electronic ruler evaluated the perpendicular distance in millimeters between the eyes of the rat to the floor. The naïve rats perceived the floor and prepared for contact at a distance of about 27 ± 4.5 mm. Evaluation of the visual placing response was measured at 0, 15, 35, 65, 125, and 190 min post-injection.

rats [4] = assay: Overall tactile response (vibrissae, pinna, corneal reflexes)
Protocol: Tactile responses were verified through vibrissae, pinna, and corneal reflexes ([Marti et al., 2019]), and data were expressed as the sum of these parameters. The vibrissae reflex was evaluated by touching the vibrissae (right and left) with a thin hypodermic needle once per side, giving a value of 1 if there was a reflex (turning of the head to the side of touch or vibrissae movement) or 0 if not present (overall score 2). Evaluation of the vibrissae reflex was measured at 0, 10, 30, 60, 120, and 180 min post-injection. The pinna reflex was assessed by touching the pavilions (left and right) with a thin hypodermic needle, the interior pavilions first. This test was repeated twice per side, giving a value of 1 if there was a reflex and 0 if not present (overall score 4). Evaluation of the pinna reflex was measured at 0, 10, 30, 60, 120, and 180 min post-injection. The corneal reflex was assessed by gently touching the cornea with a thin hypodermic needle and evaluating the response, assigning a value of 1 if the rat moved only its head, 2 if it only closed its eyelid, and 3 if it closed its lid and moved its head. The procedure was conducted bilaterally (overall score 6) and was measured at 0, 10, 30, 60, 120, and 180 min post-injection.

[5] = AM251 1 mg/kg i.p. before AKB48 3 mg/kg
[6] = AM251 1 mg/kg i.p. before AKB48 3 mg/kg i.p.

Structure (SMILES)	threshold to acute mechanical pain stimuli, AM251 alone (rats [1]; AM251 1 mg/kg i.p. alone)	AKB48 effect on mechanical pain threshold, after AM251 pre-treatment (rats [1]; [5])	catalepsy, AM251 alone (rats [2]; AM251 1 mg/kg i.p. alone)	AKB48 effect on time spent on the bar, after AM251 pre-treatment (rats [2]; [5])	visual object response, AM251 alone (rats [3]; AM251 1 mg/kg i.p. alone)	inhibition of visual object response induced by AKB48, after AM251 pre-treatment (rats [3]; [6])	response to AM251 alone in the tactile response section (rats [4]; AM251 1 mg/kg i.p. alone (data not shown))	inhibition of overall tactile response induced by AKB48, after AM251 pre-treatment (rats [4]; [6])	threshold to acute mechanical pain stimulus (tail pinch test) (rats [1]; AKB48 0.1–3 mg/kg i.p.)	time spent on the bar (rats [2]; AKB48 0.1–3 mg/kg i.p.)	persistence of the reduction of visual object response (rats [3]; AKB48 0.3 mg/kg i.p.)	visual object response (rats [3]; AKB48 0.1–3.0 mg/kg i.p., 180 min observation)	persistence of the reduction of visual object response (rats [3]; AKB48 0.5 and 3.0 mg/kg i.p.)	reduction of overall tactile response (rats [4]; AKB48, only at the highest dose (3 mg/kg i.p.)) [%]	persistence of the reduction of tactile response (rats [4]; AKB48 highest dose (3 mg/kg i.p.))
Cc1c(C(=O)NN2CCCCC2)nn(-c2ccc(Cl)cc2Cl)c1-c1ccc(I)cc1 [AM251, 1-(2,4-dichlorophenyl)-5-(4-iodophenyl)-4-methyl-N-(piperidin-1-yl)-1H-pyrazole-3-carboxamide, reference compound]	did not alter	prevented	did not induce catalepsy	prevented	did not alter	prevented	did not alter	prevented	–	–	–	–	–	–	–
CCCCCn1nc(C(=O)NC23CC4CC(CC(C4)C2)C3)c2ccccc21 [AKB48, N-(1-adamantyl)-1-pentyl-1H-indazole-3-carboxamide]	–	–	–	–	–	–	–	–	slightly increased	slightly increased	transient	dose-dependently reduced	up to 180 min	~23	up to 60 min
